US20140045832A1, “Insulin-Like Growth Factor-1 Receptor Inhibitors” (PIRAMAL ENTERPRISES LIMITED, priority 2011, published 2014)

Target: T1, human IGF-1R (Homo sapiens, UniProt P08069)
T1 construct: IGFRK and IRK enzyme used for the assay was intracellular kinase domain of human IGF-1R and human IR; made in house
Test: In vitro IGF-1R kinase assay (HTRF)
Assay type: biochemical
Conditions: intracellular kinase domain GST fusion, ATP 20 μM, 1 hour at 23° C., read-out: IGFIR-Activity
Method: The in vitro kinase assays using IGF-1R and IR kinase GST fusion proteins were conducted using a homogeneous time-resolved fluorescence (HTRF) format. […] The standard enzyme reaction buffer consisted of 50 mM Tris HCL (pH: 7.4), 1 mM EGTA, 10 mM MgCl2, 2 mM DTT, 0.01% Tween-20, IGF-1R/IR kinase enzyme, poly GT peptide substrate (Perkin Elmer [Ulight Glu-Tyr (4:1)]n) and ATP [concentration equivalent to Kmapp]. […] Briefly, 2.5 μL enzyme and 2.5 μL inhibitor was pre-incubated for 10 minutes at 23° C. followed by the addition of 2.5 μL of poly GT substrate (final concentration of 50 nM). Reaction was initiated with the addition of 2.5 μL of ATP (final concentration of 20 μM for IGF-1R assay and 10 μM for IR assay). After 1 hour incubation at 23° C., the kinase reaction was stopped with the addition of 5 μL EDTA (final concentration of 10 mM in 20 μL). Europium cryptate—labeled antiphosphotyrosine antibody PY20 (5 μL) was added (final concentration of 2 nM) and the mixture was allowed to equilibrate for 1 hour at 23° C. followed by reading the plate in an Envision plate reader. The intensity of light emission at 665 nm was directly proportional to the level of substrate phosphorylation. The IC50 values for inhibitors were determined by a four-parameter sigmoidal curve fit (Sigma plot or Graph pad).
IGFRK and IRK enzyme used for the assay was intracellular kinase domain of human IGF-1R and human IR cloned and expressed as GST fusion proteins using the baculovirus expression system and purified using glutathione—Sepharose column.

T1 sequence (P08069 999-1274 limits assumed): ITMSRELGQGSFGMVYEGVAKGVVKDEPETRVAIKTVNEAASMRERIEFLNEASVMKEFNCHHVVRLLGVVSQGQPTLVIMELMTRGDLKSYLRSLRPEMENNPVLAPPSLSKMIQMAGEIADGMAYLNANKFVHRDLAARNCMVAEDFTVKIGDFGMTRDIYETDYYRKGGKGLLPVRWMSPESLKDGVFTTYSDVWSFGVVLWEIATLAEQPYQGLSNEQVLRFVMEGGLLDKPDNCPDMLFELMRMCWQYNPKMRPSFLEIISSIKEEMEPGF

SMILES	IC50 [nM]
CC(C)(CC(=O)O)CC(=O)Nc1cc(Cl)cc2c(S(=O)(=O)N3CCO[C@H](COc4ccccc4)C3)c(C(N)=O)[nH]c12 [Compound 9, (S)-5-(2-carbamoyl-5-chloro-3-(2-(phenoxymethyl)morpholinosulfonyl)-1H-indol-7-ylamino)-3,3-dimethyl-5-oxopentanoic acid]	55.8
N#CCC(=O)Nc1cc(Cl)cc2c(S(=O)(=O)N3CCO[C@H](COc4ccccc4)C3)c(C(N)=O)[nH]c12 [Compound 14, (S)-5-chloro-7-(2-cyanoacetamido)-3-(2-(phenoxymethyl)morpholinosulfonyl)-1H-indole-2-carboxamide]	> 100
CCOC(=O)CCCC(=O)Nc1cc(Cl)cc2c(S(=O)(=O)N3CCO[C@H](COc4ccccc4)C3)c(C(N)=O)[nH]c12 [Compound 15, (S)-ethyl 5-(2-carbamoyl-5-chloro-3-(2-(phenoxymethyl)morpholinosulfonyl)-1H-indol-7-ylamino)-5-oxopentanoate]	< 100
CCOC(=O)CCCNc1cc(Cl)cc2c(S(=O)(=O)N3CCO[C@H](COc4ccccc4)C3)c(C(N)=O)[nH]c12 [Compound 18, (S)-ethyl 4-(2-carbamoyl-5-chloro-3-(2-(phenoxymethyl)morpholinosulfonyl)-1H-indol-7-ylamino)butanoate]	> 100
NC(=O)c1[nH]c2c(NC3CCCCC3)cc(Cl)cc2c1S(=O)(=O)N1CCO[C@H](COc2ccccc2)C1 [Compound 21, (S)-5-chloro-7-(cyclohexylamino)-3-(2-(phenoxymethyl)morpholinosulfonyl)-1H-indole-2-carboxamide]	> 100
NC(=O)c1[nH]c2c(NCC3CCCCC3)cc(Cl)cc2c1S(=O)(=O)N1CCO[C@H](COc2ccccc2)C1 [Compound 22, (S)-5-chloro-7-(cyclohexylmethylamino)-3-(2-(phenoxymethyl)morpholinosulfonyl)-1H-indole-2-carboxamide]	> 100
NC(=O)c1[nH]c2c(NC3CCCC3)cc(Cl)cc2c1S(=O)(=O)N1CCO[C@H](COc2ccccc2)C1 [Compound 24, (S)-5-chloro-7-(cyclopentylamino)-3-(2-(phenoxymethyl)morpholinosulfonyl)-1H-indole-2-carboxamide]	> 100
NC(=O)c1[nH]c2c(NCC3(N)CCCC3)cc(Cl)cc2c1S(=O)(=O)N1CCO[C@H](COc2ccccc2)C1 [Compound 25, (S)-7-((1-aminocyclopentyl)methylamino)-5-chloro-3-(2-(phenoxymethyl)morpholinosulfonyl)-1H-indole-2-carboxamide]	> 100
NC(=O)c1[nH]c2c(NCc3ccc(C(=O)O)cc3)cc(Cl)cc2c1S(=O)(=O)N1CCO[C@H](COc2ccccc2)C1 [Compound 26, (S)-4-((2-carbamoyl-5-chloro-3-(2-(phenoxymethyl)morpholinosulfonyl)-1H-indol-7-ylamino)methyl)benzoic acid]	< 100
NC(=O)c1[nH]c2c(NCc3ccc(F)cc3)cc(Cl)cc2c1S(=O)(=O)N1CCO[C@H](COc2ccccc2)C1 [Compound 30, (S)-5-chloro-7-(4-fluorobenzylamino)-3-(2-(phenoxymethyl)morpholinosulfonyl)-1H-indole-2-carboxamide]	> 100
CCOC(=O)N1CCC(Nc2cc(F)cc3c(S(=O)(=O)N4CCO[C@H](COc5ccccc5)C4)c(C(N)=O)[nH]c23)CC1 [Compound 33, (S)-ethyl 4-(2-carbamoyl-5-fluoro-3-(2-(phenoxymethyl)morpholinosulfonyl)-1H-indol-7-ylamino)piperidine-1-carboxylate]	< 100

Further compounds by falling IC50, results first:

IC50 [nM]	SMILES
48.7	NC(=O)c1[nH]c2c(NC3CCNC3)cc(Cl)cc2c1S(=O)(=O)N1CCO[C@H](COc2ccccc2)C1 (stereo partly drawn) [Compound 32, 5-chloro-3-((S)-2-(phenoxymethyl)morpholinosulfonyl)-7-(pyrrolidin-3-ylamino)-1H-indole-2-carboxamide]
39	CC(C)CN1CCC(Nc2cc(Cl)cc3c(S(=O)(=O)N4CCO[C@H](COc5ccccc5)C4)c(C(N)=O)[nH]c23)CC1 [Compound 31, (S)-5-chloro-7-(1-isobutylpiperidin-4-ylamino)-3-(2-(phenoxymethyl)morpholinosulfonyl)-1H-indole-2-carboxamide]
32.9	NC(=O)c1[nH]c2c(NC3CCN(C(=O)NCC4CCCCC4)CC3)cc(Cl)cc2c1S(=O)(=O)N1CCO[C@H](COc2ccccc2)C1 [Compound 29, (S)-5-chloro-7-(1-(cyclohexylmethylcarbamoyl)piperidin-4-ylamino)-3-(2-(phenoxymethyl)morpholinosulfonyl)-1H-indole-2-carboxamide]
29.9	CC(C)(CC(=O)Nc1cc(Cl)cc2c(S(=O)(=O)N3CCO[C@H](COc4ccccc4)C3)c(C(N)=O)[nH]c12)C(=O)O [Compound 10, (S)-4-(2-carbamoyl-5-chloro-3-(2-(phenoxymethyl)morpholinosulfonyl)-1H-indol-7-ylamino)-2,2-dimethyl-4-oxobutanoic acid]
22	NC(=O)c1[nH]c2c(NC3CCNCC3)cc(Cl)cc2c1S(=O)(=O)N1CCO[C@H](COc2ccccc2)C1 [Compound 36, (S)-5-chloro-3-(2-(phenoxymethyl)morpholinosulfonyl)-7-(piperidin-4-ylamino)-1H-indole-2-carboxamide]
11.5	NC(=O)CCNc1cc(Cl)cc2c(S(=O)(=O)N3CCO[C@H](COc4ccccc4)C3)c(C(N)=O)[nH]c12 [Compound 17, (S)-7-(3-amino-3-oxopropylamino)-5-chloro-3-(2-(phenoxymethyl)morpholinosulfonyl)-1H-indole-2-carboxamide]
10	NC(=O)c1[nH]c2c(NC(=O)CCCC(=O)O)cc(Cl)cc2c1S(=O)(=O)N1CCO[C@H](COc2ccccc2)C1 [Compound 11, (S)-5-(2-carbamoyl-5-chloro-3-(2-(phenoxymethyl)morpholinosulfonyl)-1H-indol-7-ylamino)-5-oxopentanoic acid]
9.8	CC(C)(C)NC(=O)N1CCC(Nc2cc(Cl)cc3c(S(=O)(=O)N4CCO[C@H](COc5ccccc5)C4)c(C(N)=O)[nH]c23)CC1 [Compound 27, (S)-7-(1-(tert-butylcarbamoyl)piperidin-4-ylamino)-5-chloro-3-(2-(phenoxymethyl)morpholinosulfonyl)-1H-indole-2-carboxamide]
7.6	NC(=O)c1[nH]c2c(NC(=O)CCCC(=O)N3CCOCC3)cc(Cl)cc2c1S(=O)(=O)N1CCO[C@H](COc2ccccc2)C1 [Compound 13, (S)-5-chloro-7-(5-morpholino-5-oxopentanamido)-3-(2-(phenoxymethyl)morpholinosulfonyl)-1H-indole-2-carboxamide]
6.6	NC(=O)c1[nH]c2c(NC(=O)CCC(=O)O)cc(Cl)cc2c1S(=O)(=O)N1CCO[C@H](COc2ccccc2)C1 [Compound 8, (S)-4-(2-carbamoyl-5-chloro-3-(2-(phenoxymethyl)morpholinosulfonyl)-1H-indol-7-ylamino)-4-oxobutanoic acid]
2.6	NC(=O)c1[nH]c2c(NCCC(=O)O)cc(Cl)cc2c1S(=O)(=O)N1CCO[C@H](COc2ccccc2)C1 [Compound 16, (S)-3-(2-carbamoyl-5-chloro-3-(2-(phenoxymethyl)morpholinosulfonyl)-1H-indol-7-ylamino)propanoic acid]
1.3	NC(=O)c1[nH]c2c(NC(=S)Nc3ccccc3)cc(Cl)cc2c1S(=O)(=O)N1CCO[C@H](COc2ccccc2)C1 [Compound 35, (S)-5-chloro-3-(2-(phenoxymethyl)morpholinosulfonyl)-7-(3-phenylthioureido)-1H-indole-2-carboxamide]

Target: T2, CYP3A4 (Homo sapiens, UniProt P08684)
T2 construct: purchased Invitrogen (Vivid screening kits)
T2 sequence (P08684 whole entry): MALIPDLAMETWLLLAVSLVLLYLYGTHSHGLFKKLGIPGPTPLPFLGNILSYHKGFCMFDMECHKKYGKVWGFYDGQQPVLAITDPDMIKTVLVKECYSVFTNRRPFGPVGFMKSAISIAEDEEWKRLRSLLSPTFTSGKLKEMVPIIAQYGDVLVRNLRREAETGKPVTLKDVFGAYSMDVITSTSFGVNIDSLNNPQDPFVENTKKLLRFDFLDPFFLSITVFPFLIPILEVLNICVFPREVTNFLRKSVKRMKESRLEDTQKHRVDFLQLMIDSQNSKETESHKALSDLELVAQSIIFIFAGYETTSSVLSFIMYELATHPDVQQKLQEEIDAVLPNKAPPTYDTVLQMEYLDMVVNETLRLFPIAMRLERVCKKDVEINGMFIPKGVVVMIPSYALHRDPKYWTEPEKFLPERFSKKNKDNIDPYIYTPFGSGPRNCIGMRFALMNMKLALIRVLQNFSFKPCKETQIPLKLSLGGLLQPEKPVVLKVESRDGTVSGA
Test: CYP inhibition fluorescence assay (rhCYP450, Vivid Invitrogen kit)
Assay type: in vitro ADME
Conditions: recombinant human CYP3A4, 10 μM compound, read-out: % inhibition of CYP 3A4 at 10 μM
Method: The % inhibition @ 10 μM data was generated from an rhCYP450/fluorescence assay according to the Vivid Invitrogen screening kits. The compounds were screened against CYP 3A4 isoform because CYP3A4 is responsible for the metabolism of approximately 50-60% of clinical drugs. The lower the percentage inhibition, the lower the CYP450 inhibitory liability of that specific compound.

inhibition at 10 µM [%]	SMILES
0	NC(=O)c1[nH]c2c(NC(=O)CCC(=O)O)cc(Cl)cc2c1S(=O)(=O)N1CCO[C@H](COc2ccccc2)C1 [Compound 8, (S)-4-(2-carbamoyl-5-chloro-3-(2-(phenoxymethyl)morpholinosulfonyl)-1H-indol-7-ylamino)-4-oxobutanoic acid]
15	NC(=O)c1[nH]c2c(NC(=O)CCCC(=O)O)cc(Cl)cc2c1S(=O)(=O)N1CCO[C@H](COc2ccccc2)C1 [Compound 11, (S)-5-(2-carbamoyl-5-chloro-3-(2-(phenoxymethyl)morpholinosulfonyl)-1H-indol-7-ylamino)-5-oxopentanoic acid]
46	NC(=O)c1[nH]c2c(NC(=O)CCCC(=O)N3CCOCC3)cc(Cl)cc2c1S(=O)(=O)N1CCO[C@H](COc2ccccc2)C1 [Compound 13, (S)-5-chloro-7-(5-morpholino-5-oxopentanamido)-3-(2-(phenoxymethyl)morpholinosulfonyl)-1H-indole-2-carboxamide]
< 40	NC(=O)c1[nH]c2c(NC(=S)Nc3ccccc3)cc(Cl)cc2c1S(=O)(=O)N1CCO[C@H](COc2ccccc2)C1 [Compound 35, (S)-5-chloro-3-(2-(phenoxymethyl)morpholinosulfonyl)-7-(3-phenylthioureido)-1H-indole-2-carboxamide]
